Where two headings read alike, the source gives them in different places.
Columns and labels:
[1] = system: influenza virus; set-up: method as in PMID 11825310, PMID 9588843; settings: usually; cited from earlier work
[2] = Solubility; type: physicochemical; settings: compared with the other complexes
[3] = Stability in solution by changes in electronic absorption spectra; type: physicochemical; settings: for behaviour in acid solution: HCl, pH~2, two days; for stability in distilled water: pH~6, two days, C~1 mM
Description: Since the compounds are soluble in water, an important factor is their stability in aqueous solutions at different pH. Stability was studied by changes in electronic absorption spectra over two days (C~1 mM, diluted 60 times to record spectra) (Figure 6). […] The most significant changes occur in the acid solution (HCl, pH~2). […] Protonation of the pyrazolate ligands, which occurs in acidic solutions, results in the dissociation of binuclear clusters. […] Unlike the pyrazole, the triazole structure has an additional free nitrogen atom that can be protonated. In this case, protonation of the triazolate ligands and formation of a neutral form [Mo12O28(μ-1,2,4-trz)4(μ-1,2,4-trzH)4] with low solubility apparently occurs. […] The complex can be dissolved back into water by adding any alkali solution, which is confirmed by the preservation of the ^1H NMR spectra (Figure S15). Typically, most POMs are not stable in weakly acidic or alkaline aqueous solutions [26, 27], while the compounds studied show the opposite situation, which is associated with both the structure based on binuclear clusters and their linkages through bridging pyrazolate or triazolate ligands.
Elemental analyses were obtained using a vario MICRO cube analyzer and EuroVector EA3000. Energy-dispersive X-ray spectroscopy (EDS) was performed on a Hitachi TM3000 TableTop SEM (Hitachi High-Technologies Corporation, Tokyo, Japan) with Bruker QUANTAX 70 EDS equipment. FTIR spectra were recorded on a Bruker Vertex 80 as KBr disks. The thermal properties (TGA) were studied on a Thermo Microbalance TG 209 F1 Iris (NETZSCH) from 25 to 800 °C at the heating rate of 10 °C·min^−1 in He flow (30 mL·min^−1). Powder X-ray diffraction patterns were collected on a Philips PW 1820/1710 diffractometer (CuKα radiation, graphite monochromator and Si as an external reference). The absorption spectra (UV–vis) were recorded on an Agilent Cary 60 UV/Vis spectrophotometer.

[4] = system: MRC-5 cells; experiment: Cellular penetration: Mo content in MRC-5 cells by ICP-AES; type: cell-based, human; settings: for Cellular penetration: MRC-5 cells, 30 min to 48 h incubation, ICP-AES
Description: (§1) The cells were seeded into 6-well plates at concentration of 5 × 10^5 cells/well. The next day, solutions of 1 and 2 were added to the plates to give final concentrations of 1.0 mM and incubated with cells for 30 min, 2, 6, 24 and 48 h. Then, cells were washed three times with a sterile phosphate buffer. The cells were then removed from the wells with trypsin and centrifuged at 1000 rpm for 5 min. After centrifugation, the number of cells in each sample was calculated. The resulting cell suspension was brought to a volume of 300 µL in a sterile buffer so that each sample contained 0.5 million cells.
(§2) Molybdenum content in cells after incubation times was determined on a high-resolution spectrometer iCAP-6500 (Thermo Scientific, Waltham, MA, USA) with a cyclone-type spray chamber and “SeaSpray” nebulizer. The spectra were obtained by axial plasma viewing. Standard operating conditions of the ICP-AES system were following: power = 1150 W, injector inner diameter = 3 mm, carrier argon flow = 0.7 L min^−1, accessorial argon flow = 0.5 L min^−1, cooling argon flow = 12 L min^−1, number of parallel measurements = 3, and integration time = 5 s.

[5] = system: MDCK cells (Madin–Darby canine kidney cells); settings: absence of virus, up to 500 μM, 72 h
[6] = system: influenza A virus, subtype H5N1 (strain A/chicken/Chelyabinsk region/2KL/Russia/2021); type: cell-based
[7] = system: Hep-2 cells; experiment: Cellular penetration: Mo content in Hep-2 cells by ICP-AES; type: cell-based, human; settings: for Cellular penetration: Hep-2 cells, 30 min to 48 h incubation, ICP-AES
Description: as §1, §2

[8] = system: Hep-2 (human larynx carcinoma cell line); settings: read-out: half-maximal cell inhibition concentration (IC50); Hep-2 cells, MTT, 72 h, concentration range up to 2 mM
Excerpt: (§3) MDCK (Madin–Darby canine kidney, ATCC CCL34), MRC-5 (lung tissue fibroblasts of a human embryo, collection code 112) and Hep-2 (human larynx carcinoma) cell lines were obtained from the Federal Budgetary Research Institution State Research Center of Virology and Biotechnology “Vector” Rospotrebnadzor cell culture collection, Russian Federation and cultured in Eagle’s Minimum Essential Medium (EMEM) and Dulbecco’s Modified Eagle’s Medium (DMEM) in relation to 1:1 supplemented with a 10% fetal bovine serum under a humidified atmosphere (5% CO2 and 95% air) at 37 °C.
(§4) The effect of compounds 1, 2 and 3 on the cells metabolic activity was determined using the 3-[4,5-dimethylthiazol-2-yl]-2,5-diphenyltetrazolium bromide (MTT) colorimetric assay. The Hep-2 and MRC-5 cells were seeded into 96-well plates at 7 × 10^3 cells/well in a medium-containing compound with concentrations from 2 to 0.01 mM and then incubated for 72 h under 5% CO2 atmosphere. After that, 10 μL of the MTT solution (final concentration of MTT is 0.5 mg·mL^−1) was added to each well, and the plates were incubated for a further 4 h. The formazan produced was then dissolved in DMSO (100 μL/well). The optical density of the solutions was measured with a Mindray Microplate Reader MR-96A (Mindray, Shenzhen, China) at a wavelength of 492 nm. The percentage of cell viability was calculated by the formula: (optical density of the solution in the wells after incubation with the compounds/optical density of the control solution) × 100%. Wells with cells incubated in a pure nutrient medium were used as a control.

[9] = system: MRC-5 (lung tissue fibroblasts of a human embryo); settings: read-out: half-maximal cell inhibition concentration (IC50); MRC-5 cells, MTT, 72 h, concentration range up to 2 mM
Excerpt: as §3, §4

[10] = system: Influenza A H1N1; set-up: method as in PMID 24878685; settings: Influenza A H1N1, incubation time 48h, cited from earlier work
[11] = system: MDCK cells; set-up: method as in PMID 24878685; settings: read-out: IC50 (cytotoxicity against MDCK cells); cited from earlier work
[12] = MRC-5, 1 mM solution (∽2350 µg Mo/5·10^5 cells), 30 minutes
[13] = Hep-2, 1 mM solution (∽2350 µg Mo/5·10^5 cells), 30 minutes

For `CCOC(=O)C1=C[C@@H](OC(CC)CC)[C@H](NC(C)=O)[C@@H](N)C1` [oseltamivir], the EC50 [1] is listed as less than 10 µM.
For `CC(=O)N[C@H]1[C@H]([C@H](O)[C@H](O)CO)OC(C(=O)O)=C[C@@H]1N=C(N)N` [zanamivir], the EC50 [1] is given as less than 10 µM.
In the case of “(NH4)4[Mo12O28(μ-1,2,3-trz)8]·4H2O [Compound 3]”, the solubility in water [2] is reported as “significantly lower solubility in water”.
For “(NH4)4[Mo12O28(μ-1,2,4-trz)8]·1.5(1,2,4-trzH)·3H2O [Compound 2]”, the “behaviour in acid solution” value [3] was “immediately precipitates”, the “stability in alkaline solution (spectral change)” value ([3]; NaOH, pH~12, two days) was “slight change in the absorption intensity” and the “stability in distilled water” value [3] was “high stability”. The “Quantity of Mo accumulated by cells” value [4, 12] was 0.23 μg Mo/5·105 cells, the “Quantity of Mo accumulated by cells” value ([4]; MRC-5, 1 mM solution, 2 hours) was 0.11 μg Mo/5·105 cells and the “Quantity of Mo accumulated by cells” value ([4]; MRC-5, 1 mM solution, 6 hours) was 0.12 μg Mo/5·105 cells. The “Quantity of Mo accumulated by cells” value ([4]; MRC-5, 1 mM solution, 24 hours) was 0.34 μg Mo/5·105 cells, the “Quantity of Mo accumulated by cells” value ([4]; MRC-5, 1 mM solution, 48 hours) was 0.34 μg Mo/5·105 cells and the Cellular penetration [4] was “absence of cell penetration”. For the same compound, the “cytopathic effect on MDCK cells” value [5] was “do not show any significant cytopathic effect”, the antiviral effect ([6]; MDCK cells in presence of H5N1 virus, concentration range tested up to 500 μM) was “no effect or insignificant effect” and the “Quantity of Mo accumulated by cells” value [7, 13] was 0.18 μg Mo/5·105 cells. For the same compound, the “Quantity of Mo accumulated by cells” value ([7]; Hep-2, 1 mM solution, 2 hours) was 0.32 μg Mo/5·105 cells, the “Quantity of Mo accumulated by cells” value ([7]; Hep-2, 1 mM solution, 6 hours) was 0.33 μg Mo/5·105 cells and the “Quantity of Mo accumulated by cells” value ([7]; Hep-2, 1 mM solution, 24 hours) was 0.43 μg Mo/5·105 cells. The “Quantity of Mo accumulated by cells” value ([7]; Hep-2, 1 mM solution, 48 hours) was 0.42 μg Mo/5·105 cells, the Cellular penetration [7] was “absence of cell penetration” and the IC50 [8] was greater than 2000 µM. It also gave an IC50 [9] of 1810 ± 40 µM.
With “(NH4)4[Mo12O28(μ-pz)8]·1.5pzH·4.5H2O [Compound 1]” the “behaviour in acid solution” value [3] was “complete destruction”, the “decrease in the absorption intensity” value ([3]; NaOH, pH~12, two days) was ~ 10% and the “stability in distilled water” value [3] was “high stability”. The “Quantity of Mo accumulated by cells” value [4, 12] was 0.22 μg Mo/5·105 cells, the “Quantity of Mo accumulated by cells” value ([4]; MRC-5, 1 mM solution, 2 hours) was 0.25 μg Mo/5·105 cells and the “Quantity of Mo accumulated by cells” value ([4]; MRC-5, 1 mM solution, 6 hours) was 0.24 μg Mo/5·105 cells. For the same compound, the “Quantity of Mo accumulated by cells” value ([4]; MRC-5, 1 mM solution, 24 hours) was 0.77 μg Mo/5·105 cells, the “Quantity of Mo accumulated by cells” value ([4]; MRC-5, 1 mM solution, 48 hours) was 0.83 μg Mo/5·105 cells and the Cellular penetration [4] was “absence of cell penetration”. For the same compound, the “cytopathic effect on MDCK cells” value [5] was “do not show any significant cytopathic effect”, the “concentrations at which antiviral effect was found” value ([6]; MDCK cells in presence of H5N1 virus, 72 h, MTT) was “above 62.5 μM” and the EC50 ([6]; presence of H5N1 virus, 72 h, nonlinear regression, read-out: EC50 (50% virus-inhibitory effective concentration as indirectly measured by MDCK cell viability)) was 82.4 ± 11.4 µM. The “Quantity of Mo accumulated by cells” value [7, 13] was 0.25 μg Mo/5·105 cells, the “Quantity of Mo accumulated by cells” value ([7]; Hep-2, 1 mM solution, 2 hours) was 0.46 μg Mo/5·105 cells and the “Quantity of Mo accumulated by cells” value ([7]; Hep-2, 1 mM solution, 6 hours) was 0.47 μg Mo/5·105 cells. The “Quantity of Mo accumulated by cells” value ([7]; Hep-2, 1 mM solution, 24 hours) was 0.75 μg Mo/5·105 cells, the “Quantity of Mo accumulated by cells” value ([7]; Hep-2, 1 mM solution, 48 hours) was 0.75 μg Mo/5·105 cells and the Cellular penetration [7] was “absence of cell penetration”. For the same compound, the IC50 [8] was greater than 2000 µM and the IC50 [9] was greater than 2000 µM.
For Cs2K4Na[SiW9Nb3O40] [POM93], the EC50 ([10]; converted from μg/mL, read-out: EC50) is given as roughly 2.4 µM, the EC50 [10] is given as 7.4 ± 1.1 µg/mL and the IC50 [11] is given as 140 µM.

Reference: article PMC10745505 (Molecules, 2023)
